Consider two compounds from patent US6391880B1, “Heterocyclic compounds useful as oxido-squalene cyclase inhibitors” (Zeneca Limited, priority 1997, dated 2002).

Data set [1] deals with T1, rat microsomal oxido-squalene cyclase (Rattus norvegicus, UniProt P48450).
T1 construct: Microsomes are prepared from rat liver according to methods known in the art; from tissue; host or cells: rat liver microsomes
T1 sequence (P48450 1-733): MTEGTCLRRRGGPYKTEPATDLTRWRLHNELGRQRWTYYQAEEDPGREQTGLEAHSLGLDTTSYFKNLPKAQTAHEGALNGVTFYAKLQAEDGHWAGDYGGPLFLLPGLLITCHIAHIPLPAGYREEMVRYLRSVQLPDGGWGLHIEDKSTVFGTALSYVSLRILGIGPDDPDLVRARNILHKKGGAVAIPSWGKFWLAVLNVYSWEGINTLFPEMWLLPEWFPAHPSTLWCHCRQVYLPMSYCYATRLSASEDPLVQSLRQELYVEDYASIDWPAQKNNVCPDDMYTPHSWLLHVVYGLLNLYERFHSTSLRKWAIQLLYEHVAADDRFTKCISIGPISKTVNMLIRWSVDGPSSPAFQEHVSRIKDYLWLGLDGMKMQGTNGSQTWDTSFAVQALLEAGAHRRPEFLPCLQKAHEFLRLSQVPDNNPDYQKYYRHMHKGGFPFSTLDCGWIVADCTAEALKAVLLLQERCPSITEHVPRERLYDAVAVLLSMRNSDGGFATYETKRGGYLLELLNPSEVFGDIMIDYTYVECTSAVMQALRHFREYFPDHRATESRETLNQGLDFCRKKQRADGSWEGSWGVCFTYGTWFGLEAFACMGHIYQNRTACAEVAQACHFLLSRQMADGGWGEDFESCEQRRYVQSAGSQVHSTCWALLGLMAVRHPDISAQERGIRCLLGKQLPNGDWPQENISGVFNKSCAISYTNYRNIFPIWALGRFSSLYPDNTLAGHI
Briefly: In vitro test to measure inhibition of oxido-squalene cyclase. The data set is classed as biochemical. Particulars: at a concentration of 0.1 μM; rat liver microsomes. The method, then:
(a) In Vitro Test to Measure Inhibition of Oxido-Squalene Cyclase
This test measures the inhibition of microsomal oxido-squalene cyclase in vitro by compounds at set concentrations in the incubation medium.
Microsomes are prepared from rat liver according to methods known in the art, for example, the method described in published European Patent Application No 324,421 and stored in liquid nitrogen prior to assay. Assay vials are kept at 37° C. throughout the incubation. The microsomes typically contain 15-20 mg of protein per ml of microsomes. For assay, 1 ml of microsomes are diluted by the addition of 722 μl of 50 mM phosphate buffer pH 7.4.
Phosphate buffered Tween 80 (polyoxyethylene sorbitan […]) is prepared by adding 0.1 g Tween 80 to 100 ml of 50 mM phosphate buffer.
A stock solution of oxido-squalene is made up as a solution in ethanol (0.65 mg. ml.^−1). 18 μl of radio-labelled oxido-squalene (1 μCi.ml^−1) is evaporated to dryness under a stream of nitrogen and redissolved in 1 ml of ethanol and 1 ml of the stock solution of oxido-squalene is added.
The test compound is dissolved in dimethyl sulphoxide to give a 10^−4M stock solution. […]
The samples are then placed in a water bath at 80° C. for 2 hours to saponify. […] Reaction rate is measured as the conversion of oxido-squalene to lanosterol, and the effects of test compounds are expressed as an inhibition of this process.
Background: Liver microsomes are a subcellular fraction often used to study metabolism.

Data set [2] relates to rat cholesterol biosynthesis. Nature of the data set: In vivo test to measure inhibition of oxido-squalene cyclase / cholesterol biosynthesis in the rat. Particulars: dosed at 2 mg/kg, oral. Here is the method: (b) In Vivo Test to Measure Inhibition of Oxido-Squalene Cyclase
The ability of a compound to inhibit oxido-squalene cyclase and/or inhibit cholesterol biosynthesis may be assessed by a routine laboratory procedure carried out in the rat. The test involves administration of the compound to rats on a reversed lighting regimen. Female rats (35-55 g) are housed in reverse lighting conditions (red light from 0200 h-1400 h) for a period of about 2 weeks prior to test. Animals are allowed free access to chow and drinking water throughout this period. At test, animals should weigh 100-140 g. The rats are dosed orally with the compound (typically 10-50 mg/kg) formulated in apolyethylene glycol/hydroxypropylmethyl cellulose mix. After 1 hour the rats are given […] sodium mevalonate (15 μCi/kg) intraperitoneally. Two hours after administration of the compound the rats are terminated and a piece of liver removed and weighed. The tissue is saponified at 80° C. for 2 hours in an ethanolic/potassium hydroxide solution (80% w/v aqueous KOH diluted 1:10 with ethanol). Water (2 ml) is added and the mixture extracted with iso-hexane (2×5 ml). The organic extracts are combined, evaporated to dryness under a stream of nitrogen and the residue is dissolved in a mixture of acetonitrile/iso-propanol (300 μl). […] The radio-label content of each fraction is assessed using a radio chemical flow detector. […]

The term melting point denotes the temperature of the solid-liquid transition. With `O=C(C1CCN(S(=O)(=O)c2ccc(Br)cc2)CC1)N1CCC(c2ccncc2)CC1`, the melting point was in the range of 154 to 155 °C.

`O=C(N1CCC(c2ccncc2)CC1)N1CCN(S(=O)(=O)c2ccc(Br)cc2)CC1` [Example 2]: in data set [1], the “inhibition of rat microsomal oxido-squalene cyclase” value was “about 94%”. Further, in data set [2], the “inhibition of rat cholesterol biosynthesis” value was “about 85%”.
